# Test results from patent publication US6630501B1, “Phosphinic pseudo-peptides that may be used as matrix zinc metalloprotease inhibitors” (Commissariat a l'energie Atomique, priority 1999, dated 2003).
# pKi: −log10 of the molar value.
# Key:
# MMP-14 (MT1-MMP) = target: T1, MMP-14 (MT1-MMP) (Homo sapiens, UniProt P50281); assay: Ki determination with fluorogenic synthetic substrates, recombinant MMP-14; format: biochemical; conditions: for pKi: Tris/50 mM HCl buffer, pH 6.8, 10 mM CaCl2, 25° C., read-out: affinity constant Ki, MMP-14 MT1-MMP
# T1 construct: made in house; host or cells: E. coli
# Description: (§1) The MMPs used were produced in recombinant form, in an E. coli expression system, and then purified using different types of chromatographies. Apart from stromelysin-3 (MMP-11), the MMPs produces correspond to human sequences. The Stromelysin-3 used in this study corresponds to the murine form.
# (§2) The activity of each MMP was determined using two fluorogenic synthetic substrates. The cutoff of said substrates, which generates a fluorescent signal proportional to the quantity of split substrate, enables a precise determination of the kinetic parameters. The affinity constants Ki were calculated using the equation of Horowitz et al, Proc. Natl. Acad. Sci. USA, 1987, 84, p. 6654-6658 [14], accounting for the dependency of the percentage of inhibition measured experimentally according to the concentration of inhibitor, as a function of the enzyme and substrate concentration.
# (§3) The experiments for conducted in a Tris/50 mM HCl buffer, pH 6.8, 10 mM CaCl2, 25° C.
# MMP-1 (HFC) = target: T2, MMP-1 (HFC) (Homo sapiens, UniProt P03956); assay: Ki determination with fluorogenic synthetic substrates, recombinant MMP-1; format: biochemical; conditions: for inhibition at 1 µM: @ 1 μM inhibitor, read-out: percentage of inhibition, MMP-1
# T2 construct: made in house; host or cells: E. coli
# T2 sequence (P03956 100-469): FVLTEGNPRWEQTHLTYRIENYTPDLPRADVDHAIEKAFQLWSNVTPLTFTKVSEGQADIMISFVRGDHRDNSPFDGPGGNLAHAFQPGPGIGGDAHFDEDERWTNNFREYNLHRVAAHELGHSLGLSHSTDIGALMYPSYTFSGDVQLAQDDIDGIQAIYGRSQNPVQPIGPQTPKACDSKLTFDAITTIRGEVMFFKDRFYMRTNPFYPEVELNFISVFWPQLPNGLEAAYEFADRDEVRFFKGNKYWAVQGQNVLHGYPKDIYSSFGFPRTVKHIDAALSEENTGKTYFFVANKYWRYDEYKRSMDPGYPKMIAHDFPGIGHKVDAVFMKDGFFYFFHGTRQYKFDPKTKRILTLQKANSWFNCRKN
# Description: as §1, §2, §3
# MMP-7 (Matrilysin) = target: T3, MMP-7 (Matrilysin) (Homo sapiens, UniProt P09237); assay: Ki determination with fluorogenic synthetic substrates, recombinant MMP-7; format: biochemical; conditions: for percentage of inhibition, MMP-7: @ 50 mM inhibitor; for inhibition at 1 µM: @ 1 μM inhibitor, read-out: percentage of inhibition, MMP-7; for pKi: Tris/50 mM HCl buffer, pH 6.8, 10 mM CaCl2, 25° C., read-out: affinity constant Ki, MMP-7 Matrilysin
# T3 construct: made in house; host or cells: E. coli
# T3 sequence (P09237 95-267): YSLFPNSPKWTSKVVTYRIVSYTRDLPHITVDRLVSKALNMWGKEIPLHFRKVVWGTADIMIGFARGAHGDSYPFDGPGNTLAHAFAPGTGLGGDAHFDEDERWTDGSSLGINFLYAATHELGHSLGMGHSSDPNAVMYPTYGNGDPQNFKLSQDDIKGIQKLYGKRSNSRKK
# Description: as §1, §2, §3
# MMP-2 (Gel-A) = target: T4, MMP-2 (Gel-A) (Homo sapiens, UniProt P08253); assay: Ki determination with fluorogenic synthetic substrates, recombinant MMP-2; format: biochemical; conditions: for pKi: Tris/50 mM HCl buffer, pH 6.8, 10 mM CaCl2, 25° C., read-out: affinity constant Ki, MMP-2 Gel-A
# T4 construct: made in house; host or cells: E. coli
# T4 sequence (P08253 110-660): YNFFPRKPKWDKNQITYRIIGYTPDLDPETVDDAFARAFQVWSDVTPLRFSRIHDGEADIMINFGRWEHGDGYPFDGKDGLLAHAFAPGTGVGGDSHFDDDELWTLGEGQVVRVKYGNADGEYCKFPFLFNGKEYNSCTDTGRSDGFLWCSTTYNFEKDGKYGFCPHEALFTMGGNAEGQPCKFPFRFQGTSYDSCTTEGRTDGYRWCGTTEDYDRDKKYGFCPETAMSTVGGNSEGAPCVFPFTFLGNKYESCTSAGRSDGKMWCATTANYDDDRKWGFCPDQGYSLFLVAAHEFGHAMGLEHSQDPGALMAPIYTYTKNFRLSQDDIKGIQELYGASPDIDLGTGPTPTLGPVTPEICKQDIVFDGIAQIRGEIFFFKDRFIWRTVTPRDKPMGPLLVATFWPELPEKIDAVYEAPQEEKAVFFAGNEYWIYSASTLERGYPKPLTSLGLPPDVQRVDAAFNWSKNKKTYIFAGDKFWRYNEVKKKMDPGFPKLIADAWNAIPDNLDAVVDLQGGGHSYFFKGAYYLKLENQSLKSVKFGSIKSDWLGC
# Description: as §1, §2, §3
# [1] = target: T5, MMP-11 (stromelysin-3, mST3) (Mus musculus, UniProt Q02853); assay: Ki determination with fluorogenic synthetic substrates, recombinant MMP-11; format: biochemical, murine; conditions: for pKi: Tris/50 mM HCl buffer, pH 6.8, 10 mM CaCl2, 25° C., read-out: affinity constant Ki, MMP-11 mST3
# T5 construct: made in house; host or cells: E. coli
# T5 sequence (Q02853 102-492): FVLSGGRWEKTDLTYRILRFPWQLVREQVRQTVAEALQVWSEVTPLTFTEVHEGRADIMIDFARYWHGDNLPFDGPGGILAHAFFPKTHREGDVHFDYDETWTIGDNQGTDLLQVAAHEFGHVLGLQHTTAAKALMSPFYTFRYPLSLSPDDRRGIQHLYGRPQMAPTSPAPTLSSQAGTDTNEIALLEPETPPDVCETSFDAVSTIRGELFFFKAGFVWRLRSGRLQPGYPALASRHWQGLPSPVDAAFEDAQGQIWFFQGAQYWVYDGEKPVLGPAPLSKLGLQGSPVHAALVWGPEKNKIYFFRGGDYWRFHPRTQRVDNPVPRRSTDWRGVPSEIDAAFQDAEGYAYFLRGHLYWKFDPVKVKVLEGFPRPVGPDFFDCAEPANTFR
# Description: as §1, §2, §3
# MMP-9 (Gel-B) = target: T6, MMP-9 (Gel-B) (Homo sapiens, UniProt P14780); assay: Ki determination with fluorogenic synthetic substrates, recombinant MMP-9; format: biochemical; conditions: for pKi: Tris/50 mM HCl buffer, pH 6.8, 10 mM CaCl2, 25° C., read-out: affinity constant Ki, MMP-9 Gel-B
# T6 construct: made in house; host or cells: E. coli
# Description: as §1, §2, §3
# MMP-8 (HNC) = target: T7, MMP-8 (HNC) (Homo sapiens, UniProt P22894); assay: Ki determination with fluorogenic synthetic substrates, recombinant MMP-8; format: biochemical; conditions: for pKi: Tris/50 mM HCl buffer, pH 6.8, 10 mM CaCl2, 25° C., read-out: affinity constant Ki, MMP-8 HNC
# T7 construct: made in house; host or cells: E. coli
# Description: as §1, §2, §3
# T6 sequence (P14780 94-707): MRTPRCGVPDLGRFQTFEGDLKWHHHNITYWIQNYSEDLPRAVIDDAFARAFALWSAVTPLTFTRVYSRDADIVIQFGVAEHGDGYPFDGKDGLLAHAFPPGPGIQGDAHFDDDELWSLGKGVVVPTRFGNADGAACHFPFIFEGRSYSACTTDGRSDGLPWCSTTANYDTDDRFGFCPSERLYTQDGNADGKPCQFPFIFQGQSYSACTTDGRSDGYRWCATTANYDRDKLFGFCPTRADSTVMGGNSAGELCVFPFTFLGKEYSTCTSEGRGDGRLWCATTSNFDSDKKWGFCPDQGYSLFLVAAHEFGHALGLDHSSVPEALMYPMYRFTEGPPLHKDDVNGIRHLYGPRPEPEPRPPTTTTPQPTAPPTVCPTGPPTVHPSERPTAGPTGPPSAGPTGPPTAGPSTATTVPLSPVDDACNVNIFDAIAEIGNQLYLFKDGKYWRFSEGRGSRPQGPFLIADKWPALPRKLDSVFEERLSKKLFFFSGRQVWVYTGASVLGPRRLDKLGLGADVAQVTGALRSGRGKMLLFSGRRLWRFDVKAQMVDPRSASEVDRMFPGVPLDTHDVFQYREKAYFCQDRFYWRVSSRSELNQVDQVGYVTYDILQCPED
# T7 sequence (P22894 101-467): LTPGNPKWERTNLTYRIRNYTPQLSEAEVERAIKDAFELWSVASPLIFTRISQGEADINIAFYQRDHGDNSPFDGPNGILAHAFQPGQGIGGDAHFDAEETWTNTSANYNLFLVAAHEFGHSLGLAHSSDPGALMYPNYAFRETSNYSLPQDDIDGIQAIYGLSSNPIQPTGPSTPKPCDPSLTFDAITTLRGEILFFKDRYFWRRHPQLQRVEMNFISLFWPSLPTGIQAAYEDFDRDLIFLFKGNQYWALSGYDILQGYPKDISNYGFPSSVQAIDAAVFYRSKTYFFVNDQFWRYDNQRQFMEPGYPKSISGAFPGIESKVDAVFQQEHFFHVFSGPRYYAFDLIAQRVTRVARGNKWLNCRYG
pKi (MMP-14 (MT1-MMP)),pKi (MMP-2 (Gel-A)),pKi [1],pKi (MMP-9 (Gel-B)),pKi (MMP-8 (HNC)),inhibition at 1 µM (MMP-1 (HFC)),inhibition at 1 µM (MMP-7 (Matrilysin)),Structure (SMILES),further results
7.40,8.10,8.30,8.00,8.60,28%,33%,NC(=O)C(Cc1c[nH]c2ccccc12)NC(=O)C(CCCc1ccccc1)CP(=O)(O)C(Cc1ccccc1)NC(=O)COCc1ccccc1 (centres unmarked) [Compound 26],–
7.39,7.96,8.10,8.00,8.26,24%,18%,CC(NC(=O)OCc1ccccc1)C(=O)NC(Cc1ccccc1)P(=O)(O)CC(CCCc1ccccc1)C(=O)NC(Cc1c[nH]c2ccccc12)C(N)=O (centres unmarked) [Compound 34],–
7.28,7.40,8.22,7.66,8.15,20%,32%,CC(C)CC(NC(=O)OCc1ccccc1)C(=O)NC(Cc1ccccc1)P(=O)(O)CC(CCCc1ccccc1)C(=O)NC(Cc1c[nH]c2ccccc12)C(N)=O (centres unmarked) [Compound 35],–

# Continued, compound first:
Structure (SMILES),pKi (MMP-14 (MT1-MMP)),pKi (MMP-2 (Gel-A)),pKi [1],pKi (MMP-9 (Gel-B)),pKi (MMP-8 (HNC)),inhibition at 1 µM (MMP-1 (HFC)),inhibition at 1 µM (MMP-7 (Matrilysin)),further results
COc1ccc(CSCC(CP(=O)(O)C(Cc2ccccc2)NC(=O)OCc2ccccc2)C(=O)NC(Cc2c[nH]c3ccccc23)C(N)=O)cc1 (centres unmarked) [Compound 18],7.66,8.22,8.70,8.52,9.15,–,–,"percentage of inhibition, MMP-1 (MMP-1 (HFC); @ 2 mM inhibitor): 13% @ 2 mM; percentage of inhibition, MMP-7 (MMP-7 (Matrilysin)): 84% @ 50 mM; inhibitory power on MMP-2, in words (MMP-2 (Gel-A)): very powerful inhibitor; inhibitory power on MMP-11, in words [1]: very powerful inhibitor; inhibitory power on MMP-9, in words (MMP-9 (Gel-B)): very powerful inhibitor; inhibitory power on MMP-8, in words (MMP-8 (HNC)): very powerful inhibitor"
NC(=O)[C@@H](Cc1c[nH]c2ccccc12)NC(=O)C(CCCc1ccccc1)CP(=O)(O)C(Cc1ccccc1)NC(=O)OCc1ccccc1 (some centres unmarked) [Compound 23],–,–,–,–,–,–,–,"percentage of inhibition, MMP-14 (MMP-14 (MT1-MMP); @ 10 mM inhibitor): 10% @ 10 mM; percentage of inhibition, MMP-1 (MMP-1 (HFC); @ 10 mM inhibitor): 3% @ 10 mM; percentage of inhibition, MMP-7 (MMP-7 (Matrilysin)): 18% @ 50 mM; percentage of inhibition, MMP-2 (MMP-2 (Gel-A); @ 2 mM inhibitor): 6% @ 2 mM; percentage of inhibition, MMP-11 ([1]; @ 1 mM inhibitor): 1% @ 1 mM; percentage of inhibition, MMP-9 (MMP-9 (Gel-B); @ 2 mM inhibitor): 14% @ 2 mM; percentage of inhibition, MMP-8 (MMP-8 (HNC); @ 1 mM inhibitor): 2% @ 1 mM"
CC(=O)NC(Cc1ccccc1)P(=O)(O)CC(CCCc1ccccc1)C(=O)NC(Cc1c[nH]c2ccccc12)C(N)=O (centres unmarked) [Compound 25],7.05,7.59,7.70,7.46,8.46,29%,16%,–
NC(=O)C(Cc1c[nH]c2ccccc12)NC(=O)C(CCCc1ccccc1)CP(=O)(O)C(Cc1ccccc1)NC(=O)CNc1ccccc1 (centres unmarked) [Compound 27],7.14,7.77,7.82,8.22,8.35,33%,16%,–
NC(=O)C(Cc1c[nH]c2ccccc12)NC(=O)C(CCCc1ccccc1)CP(=O)(O)C(Cc1ccccc1)NC(=O)CNc1cccc(Cl)c1 (centres unmarked) [Compound 28],7.35,8.05,8.42,8.22,8.40,63%,25%,–
NC(=O)C(Cc1c[nH]c2ccccc12)NC(=O)C(CCCc1ccccc1)CP(=O)(O)C(Cc1ccccc1)NC(=O)CNc1cc(Cl)ccc1O (centres unmarked) [Compound 29],7.20,7.52,8.00,7.47,8.12,55%,48%,–
NC(=O)C(Cc1c[nH]c2ccccc12)NC(=O)C(CCCc1ccccc1)CP(=O)(O)C(Cc1ccccc1)NC(=O)c1cc2c(Cl)cc(Cl)cc2[nH]1 (centres unmarked) [Compound 31],7.49,7.62,9.05,8.15,8.30,–,–,"pKi (MMP-1 (HFC); Tris/50 mM HCl buffer, pH 6.8, 10 mM CaCl2, 25° C., read-out: affinity constant Ki, MMP-1 HFC): 7.44; pKi (MMP-7 (Matrilysin)): 6.93; inhibitory power on MMP-11, in words [1]: very powerful inhibitor"
NC(=O)C(Cc1c[nH]c2ccccc12)NC(=O)C(CCCc1ccccc1)CP(=O)(O)C(Cc1ccccc1)NC(=O)c1ccc2ccccc2n1 (centres unmarked) [Compound 32],7.22,7.72,8.38,7.89,8.30,78%,–,pKi (MMP-7 (Matrilysin)): 6.43
NC(=O)C(Cc1c[nH]c2ccccc12)NC(=O)C(CCCc1ccccc1)CP(=O)(O)C(Cc1ccccc1)NC(=O)c1cc2cc(Cl)cc(Cl)c2oc1=O (centres unmarked) [Compound 33],6.66,7.00,8.30,6.96,7.77,47%,37%,–
